Patent US20060172334A1, “Method for detecting adverse reaction susceptibility to an HMG CoA reductase inhibitor” (Marshfield Clinic, priority 2005, published 2006)
Read-outs that look alike come from different tables or passages of the source.

Settings: cases only
[1] = CYP3A4 heterozygous (CYP3A4*1A/*1B), less gemfibrozil
[2] = CYP3A4 heterozygous (CYP3A4*1A/*1B), less gemfibrozil AND less niacin
[3] = CYP3A4 heterozygous (CYP3A4*1A/*1B), no medications removed
[4] = CYP3A4 homozygous (CYP3A4*1A/*1A), less gemfibrozil
[5] = CYP3A4 homozygous (CYP3A4*1A/*1A), less gemfibrozil AND less niacin
[6] = CYP3A4 homozygous (CYP3A4*1A/*1A), no medications removed
[7] = CYP3A5 heterozygous (CYP3A5*1/*3), less gemfibrozil
[8] = CYP3A5 heterozygous (CYP3A5*1/*3), less gemfibrozil AND less niacin
[9] = CYP3A5 heterozygous (CYP3A5*1/*3), no medications removed
[10] = CYP3A5 homozygous (CYP3A5*3/*3), less gemfibrozil
[11] = CYP3A5 homozygous (CYP3A5*3/*3), less gemfibrozil AND less niacin
[12] = CYP3A5 homozygous (CYP3A5*3/*3), no medications removed

Protocol: Study subjects were enrolled at a large, horizontally-integrated, multispecialty group practice located in central Wisconsin. […] Case assignment (i.e., status as a case versus control) was determined by criteria outlined below.
One hundred thirty-seven adult subjects (68 cases and 69 controls) agreed to participate in this study. Due to potentially confounding pharmacokinetic interactions, patients were excluded from the study if they had previously been diagnosed with kidney disease or liver disease. Patients were also excluded if they had pre-existing muscle disease. Patients were not excluded if they were taking concomitant medications.
To determine whether CYP3A4*1B or CYP3A5*3 were associated with the severity of muscle damage, serum CK levels were ranked and compared between genotypes in the case cohort only.

- serum CK level, Mean [1]: 268.8
- serum CK level, Median [1]: 246.0
- serum CK level, Mean [2]: 246.6
- serum CK level, Median [2]: 239.0
- serum CK level, Mean [3]: 268.8
- serum CK level, Median [3]: 246.0
- serum CK level, Mean [4]: 434.6
- serum CK level, Median [4]: 316.5
- serum CK level, Mean [5]: 420.4
- serum CK level, Median [5]: 316.5
- serum CK level, Mean [6]: 441.1
- serum CK level, Median [6]: 321.0
- serum CK level, Mean [7]: 261.7
- serum CK level, Median [7]: 239.0
- serum CK level, Mean [8]: 249.9
- serum CK level, Median [8]: 237.5
- serum CK level, Mean [9]: 344.0
- serum CK level, Median [9]: 246.0
- serum CK level, Mean [10]: 441.9
- serum CK level, Median [10]: 321.0
- serum CK level, Mean [11]: 428.0
- serum CK level, Median [11]: 321.0
- serum CK level, Mean [12]: 429.2
- serum CK level, Median [12]: 317.5
SMILES: CC(C)c1c(C(=O)Nc2ccccc2)c(-c2ccccc2)c(-c2ccc(F)cc2)n1CC[C@@H](O)C[C@@H](O)CC(=O)O [atorvastatin]
